Test results taken from article PMC10220285, “Development of an assay pipeline for the discovery of novel small molecule inhibitors of human glutathione peroxidases GPX1 and GPX4” (Redox Biology, 2023).

Key:
Format in all cases: biochemical
Settings in all cases: Fig. 9 pan-selenoprotein inhibitors
GPX1 = biological target: T1, GPX1 (Homo sapiens, UniProt P07203); assay: GR-coupled GPX1 activity assay (NADPH fluorescence, CHP substrate)
T1 construct: made in house; host or cells: E. coli
T1 sequence (P07203 1-203): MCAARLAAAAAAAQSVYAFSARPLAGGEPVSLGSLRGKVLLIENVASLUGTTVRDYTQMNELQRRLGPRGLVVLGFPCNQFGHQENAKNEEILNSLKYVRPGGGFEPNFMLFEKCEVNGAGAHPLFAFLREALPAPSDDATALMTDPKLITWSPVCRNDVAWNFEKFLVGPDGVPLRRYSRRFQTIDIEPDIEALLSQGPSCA
Protocol: (§1) The compound plates were prepared as described previously. Purified recombinant human GPX1, GPX2, GPX4, GR, and TXNRD1 were produced and purified as previously reported [[48], [49], [50]]. As production of GPX2 was not optimized at the onset of screening, only GPX1 and GPX4 underwent library screening, and GPX2 was used as a follow-up.
(§2) Follow-up and orthogonal assays were run in quadruplicate unless otherwise stated. Assay schemes are illustrated in Fig. 1.
(§3) To measure GPX activity, assays were performed in 1536-well format in black medium-binding solid-bottom plates (Greiner). These assay conditions were optimized for high-throughput screening from an assay first described by Paglia and Valentine. GPX activity is measured indirectly by coupling the reaction with GR whereby GPX reduces hydroperoxide by oxidizing two GSH to GSSG and the oxidized glutathione is recycled to its reduced state by GR and NADPH (Fig. 1B). The rate of consumption of NADPH is directly proportional to the activity of GPX and can be measured by the decrease in fluorescence at 340 nm/450 nm.
(§4) First, 3 μL of enzyme in TES assay buffer (50 mM Tris-HCl, 2 mM EDTA (pH 7.5), 150 mM NaCl with enzyme [10 nM GPX1, 200 nM GPX4 ] and BSA [0.01%]) was added to columns 3–48 of 1536-well plates using a BioRAPTR Flying Reagent Dispenser (Let's Go Robotics (LGR), Carlsbad, CA). A no-enzyme control (0.01% BSA in TES assay buffer) was added to columns 1–2. Compounds (25 nL, library and DMSO controls) were added to each well with a pin tool (Kalypsys), and the plates were incubated for 30 min at room temperature before 1 μL of master mix (100 nM GR, 1 mM GSH, 0.5 mM NADPH in TES buffer) was added. 1 μL of cumene hydroperoxide (CHP) ([0.5 mM] in 50% EtOH) was then added within 5 min to initiate the reaction. Fluorescence at 340/450 nm was measured using a ViewLux multimodal detector (PerkinElmer, Waltham, MA) at initial t = 0 and endpoint t = 15 min (GPX1) or t = 20 min (GPX4).
(§5) Follow-up confirmation assays were also run in 96-well format using medium binding clear 96-well SpectraPlate microplates (PerkinElmer) and NADPH absorbance at 340 nm was measured every 30 s for 30 min using an Infinite® M Nano (Tecan).
(§6) Percent activity was determined by first calculating delta RFU (decrease in fluorescence between t = 0 and t = 20/30 min in primary GPX, GR counter-screen, and TXNRD1 assays, or increase in fluorescence between t = 0 and t = 20 min in the Monobromobimane GPX endpoint assay), and normalizing enzyme activity using median delta RFU values for DMSO-treated enzyme control, and DMSO-treated no-enzyme controls.
(§7) Compound inhibitory activity in the qHTS assays was determined by plotting dose-response data for each sample and fitting with a four-parameter logistic fit to assess IC50 values, efficacy (maximal response), and AUC (area under the curve), as previously described. Hits were classified by the quality of the concentration-response curves (CRC). Curve classes −1.1 and −1.2 being the highest-confidence actives with complete CRCs and classes −2.1 and −2.2 being lower-confidence actives with incomplete CRCs.

GPX4 = biological target: T2, GPX4 (Homo sapiens, UniProt P36969); assay: GR-coupled GPX4 activity assay (NADPH fluorescence, CHP substrate)
T2 construct: made in house; host or cells: E. coli
T2 sequence (P36969 1-170 isoform P36969-2): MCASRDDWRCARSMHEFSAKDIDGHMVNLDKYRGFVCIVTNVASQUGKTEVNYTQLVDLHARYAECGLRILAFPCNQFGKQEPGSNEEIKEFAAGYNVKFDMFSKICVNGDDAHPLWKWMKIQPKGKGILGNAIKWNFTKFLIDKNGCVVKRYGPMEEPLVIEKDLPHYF
Protocol: as §1, §2, §3, §4, §5, §6, §7

human GPX2 = biological target: T3, human GPX2 (Homo sapiens, UniProt P18283); assay: GPX2 activity assay (follow-up isoform specificity)
T3 construct: made in house
T3 sequence (P18283 1-190): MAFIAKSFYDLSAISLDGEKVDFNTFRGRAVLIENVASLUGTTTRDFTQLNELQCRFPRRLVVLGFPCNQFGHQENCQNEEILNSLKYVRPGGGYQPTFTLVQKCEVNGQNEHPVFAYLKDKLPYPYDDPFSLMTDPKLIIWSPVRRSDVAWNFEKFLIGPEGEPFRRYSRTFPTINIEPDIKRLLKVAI
Protocol: as §1, §2
Previous work has shown similarities in the substrate specificities of GPX1 and GPX2, and a more unique substrate profile of GPX4 [8].
The GPX2 isoform of human selenoprotein GPXs is found in epithelial cells and has similar substrate specificity with GPX1, but not as much with GPX4 [8]. Additionally, GPX1 and GPX2 both form homotetramers and share similarities in structural homology, although GPX2 has a much slower turnover rate.

[1] = biological target: T4, GR (glutathione reductase) (Homo sapiens, UniProt P00390); assay: GR counter-assay
T4 construct: made in house
T4 sequence (P00390 44-522): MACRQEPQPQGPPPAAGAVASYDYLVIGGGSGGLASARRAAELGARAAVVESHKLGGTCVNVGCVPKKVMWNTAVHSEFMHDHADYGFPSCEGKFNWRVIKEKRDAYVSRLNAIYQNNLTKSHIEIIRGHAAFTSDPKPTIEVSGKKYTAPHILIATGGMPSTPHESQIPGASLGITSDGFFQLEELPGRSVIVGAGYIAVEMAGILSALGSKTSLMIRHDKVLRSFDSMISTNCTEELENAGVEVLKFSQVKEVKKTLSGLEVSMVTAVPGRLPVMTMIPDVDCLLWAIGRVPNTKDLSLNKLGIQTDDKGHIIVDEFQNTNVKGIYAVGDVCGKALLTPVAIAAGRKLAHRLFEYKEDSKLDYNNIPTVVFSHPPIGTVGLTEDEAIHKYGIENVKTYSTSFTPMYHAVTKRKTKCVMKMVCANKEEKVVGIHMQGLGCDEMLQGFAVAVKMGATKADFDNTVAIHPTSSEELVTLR
Protocol: as §1, §2
To identify false positive compounds that interfere with the primary assay through inhibition of GR, ‘hits’ from the primary screening were run against a GR counter assay to identify this possible off-target inhibition (Fig. 1C). Briefly, 3 μL enzyme mixture (100 nM GR, 0.01% BSA in TES buffer) was dispensed into columns […] of a 1536-well black medium-binding solid-bottom plates. The no-enzyme control (0.01% BSA in TES buffer) was included in column 1 and 2. Compounds and controls (23 nL) were added to each well with a pin tool (Kalypsys), and the plates were incubated for 30 min before 2 μL of substrate mixture (1 mM GSSG 0.4 mM NADPH in TES buffer) was added to each well and absorbance at 340 nm was measured at t = 0 and t = 20 min using a ViewLux Multimodal detector (PerkinElmer).
as §6, §7

human TXNRD1 = biological target: T5, human TXNRD1 (Homo sapiens, UniProt Q16881); assay: Thioredoxin reductase 1 (TXNRD1) inhibition assay (selenite reduction)
T5 construct: made in house
T5 sequence (Q16881 1-499 isoform Q16881-5): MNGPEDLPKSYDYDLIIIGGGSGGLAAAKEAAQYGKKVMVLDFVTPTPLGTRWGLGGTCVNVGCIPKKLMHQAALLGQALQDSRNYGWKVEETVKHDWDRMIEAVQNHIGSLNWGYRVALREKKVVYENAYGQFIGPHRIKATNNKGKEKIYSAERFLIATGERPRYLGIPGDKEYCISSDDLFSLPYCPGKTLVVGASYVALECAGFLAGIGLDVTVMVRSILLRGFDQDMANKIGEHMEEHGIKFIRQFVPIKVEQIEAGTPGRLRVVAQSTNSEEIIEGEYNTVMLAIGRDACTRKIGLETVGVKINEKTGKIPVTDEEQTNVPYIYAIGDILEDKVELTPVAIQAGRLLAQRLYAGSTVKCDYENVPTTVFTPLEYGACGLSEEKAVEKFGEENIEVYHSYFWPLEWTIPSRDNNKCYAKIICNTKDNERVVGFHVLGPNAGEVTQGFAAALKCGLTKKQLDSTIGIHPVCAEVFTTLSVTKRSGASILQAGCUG
Protocol: as §1, §2
TXNRD1 activity was assessed using a modified 1536-well TXNRD1 inhibition assay, based upon TXNRD1-catalyzed selenite reduction as previously described (Fig. 1D). […] TE buffer was dispensed into column 1 and 2 as a no-enzyme control. Finally, 1 μL of sodium selenite in TE buffer was dispensed into each well for final concentrations of 90 nM hTXNRD1, 0.4 mM NADPH, and 0.4 mM sodium selenite. The plate was read in a Viewlux multimodal detector in kinetic mode and fluorescence at 340 nm/450 nm was measured every minute for 8 min.
as §6, §7

## CO[C@@]1(NC(=O)C2SC(=C(C(N)=O)C(=O)O)S2)C(=O)N2C(C(=O)O)=C(CSc3nnnn3C)CS[C@@H]21 (some centres unmarked) [cefotetan sodium]
GPX1
  inhibition of GPX1: inhibited all tested selenoproteins
GPX4
  inhibition of GPX4: inhibited all tested selenoproteins
Human GPX2
  inhibition of GPX2: inhibited all tested selenoproteins
[1]
  inhibition of GR: not GR
Human TXNRD1
  inhibition of TXNRD1: inhibited all tested selenoproteins
